Results on eight compounds are retold here after patent publication US20250084056A1, “SUBSTITUTED OXOISOINDOLINYL PIPERIDINE-2,6-DIONE COMPOUNDS” (BRISTOL-MYERS SQUIBB COMPANY, priority 2023, published 2025).

For orientation: IC50 means the concentration needed to halve the response being measured. Low readings indicate greater potency in that assay, high ones weaker potency in that assay. The DC50 is the concentration giving 50% degradation. A lower DC50 goes with degradation at low concentration. Usually Dmax stands for the greatest extent of degradation seen.

The structures appear in SMILES notation.

What all share (format): cell-based
In one assay the test system is Phospho-Rb (Ser807/811). The assay is described as follows: Phospho-Retinoblastoma (pRB) Cellular Assay. The settings on record: Homo sapiens, OVCAR-3, NIH OVCAR3 cells, 24 hours; for IC50: concentration giving 50% response; for Emax: maximum response, reference compound at 10 μM = 100%, read-out: pRB Ymax. The protocol:
Phospho-Retinoblastoma (pRB) Cellular Assay
NIH OVCAR3 (HTB-161, American Type Culture Collection, Manassas VA) cells were grown up to passage 10 in culture media made up of RPMI (11835-030 Gibco, Grand Island NY), 20% HI FBS (16140-071, Gibco, Grand Island NY), and 0.01 mg/mL insulin from bovine pancreas (I6634-1G, Sigma Aldrich, St. Louis, MO).
The cells were seeded in a 384-well CulturPlate (6007688, Perkin Elmer, Waltham MA) at a density of 10,000 cells/well in 20 μL of the above culture media and incubated overnight at 37° C. and 5% CO2.
The next day, cells were treated using an Echo 650 (Beckman Coulter, Indianapolis IN) acoustic dispenser with 40 nL of compounds dissolved in DMSO at the appropriate serial dilutions (10 mM to […]). Cells were then incubated for 24 hours as above.
After 24 hours elapsed, media was removed from each well and shortly after 20 μL of the following mix was added: 12 μL deionized water, 4 μL lysis buffer, 4 μL of reconstituted antibody mix, and 1:100 phosphatase inhibitor. These components belong to the Phospho-Rb (Ser807/811) Cellular Kit (64RBS807PEY, Perkin Elmer, Waltham MA).
Plates were sealed and incubated away from light at room temperature for at least 4 hours before reading them on an EnVision plate reader (Perkin Elmer, Waltham MA) according to the kit manufacturer's protocol. The reference compound, N-(5-{[(5-tert-butyl-1,3-oxazol-2-yl)methyl]sulfanyl}-1,3-thiazol-2-yl)piperidine-4-carboxamide, at 10 μM was used to define 100% response. Assay results for each compound were reported as IC50, the concentration giving 50% response, and Ymax, the maximum response observed with the compound.

A further assay addresses GSPT1 (Homo sapiens, UniProt P15170+Q96SW2). The assay is described as follows: GSPT1 Cellular Degradation Assay (DF15-GSPT1-ePL). Also noted: expressed in transfected cells. Conditions: DF15-GSPT1-ePL cells, 20 hours. From the text:
DF15-GSPT1-ePL was used for intracellular GSPT1 protein degradation detection in form of chemiluminescent signal, which was built on a human DF15 cell line (CVCL_Y429) with conditional co-expression of chimeric GSPT1 (target) and ePL/donor (enhanced ProLabel® by DiscoverX for enzyme fragment complementation with donor-acceptor pairing). The cells used the culture medium in two arrangements for assay and maintenance. During assay, it used Core-RPMI 1640 medium with 10% Fetal Bovine Serum (Heat Inactivated) and 1× Penicillin/Streptomycin; and during passage maintenance, used added ingredients: 0.1 mM NEAA, 1 mM sodium pyruvate, 25 mM Hepes, 0.1% Pluronic F-68, 1× Glutamin, 4 μg/mL Blasticidin (selection agent). Detection was performed on a 1536 well tissue culture plate (Corning #3727) with cells seeded in 3.5 μL core-RPMI 1640 at density of 0.25 million/mL after the pre-titrated test compounds in DMSO on ECHO plate were dispensed onto the assay plate by use of ECHO (liquid handing system via acoustic energy from Labcyte). Assay incubation lasted 20 hours in 37° C. incubator with 5% CO2; then followed by 30 minutes of plate-cooling at room temperature; then detection-reagent-mix was added in 3.5 μL/well with pre-defined proportion of enzyme acceptor, substrate, and lysis buffer. Plate signal reading for luminescence on an EnVision plate reader (PerkinElmer) was conducted after 60 minutes of former step at room temperature. Raw data was collected and processed with Dotmatics (data analyzer) for test compound's potency values. The reference compound, 3-[5-(3,6-dimethoxyisoquinolin-1-yl)-1-oxo-2,3-dihydro-1H-isoindol-2-yl]piperidine-2,6-dione, at […] was used to define 75% response. Assay results for each compound were reported as DC50, the concentration giving 50% response, and Dmax, the maximum response observed with the compound.

A further assay concerns the target Cyclin E1 (Homo sapiens, UniProt P24864+Q96SW2). The assay is described as follows: Cyclin E1 Cellular Degradation Assay (MSD). Also noted: endogenous in cells; host or cells: OVCAR3. The settings on record: for DC50 / Dmax: Cyclin E1 cellular degradation; for Dmax: maximum degradation; for Ratio of GSPT1 DC50/Cyclin E1 DC50: selectivity for degradation of Cyclin E1 over GSPT1. The procedure:
Culturing cells: On Day 0, OVCAR3 cells were plated at 15,000 cells/well in 40 μL of culture medium (RPMI1640, 20% FBS, 0.01 insulin, 1% Anti/Anti) in a 384 well cell culture plate. Cell cultures were incubated for 24 hours at 37° C. and 5% CO2.
Coating MSD plates: On Day 1, rabbit anti-CCNE1 antibody (Abcam ab33911, 1 μg/mL in DPBS, […]) was dispensed to a Meso Scale Discovery plate (MSD L21XA). The MSD plate was spun briefly to ensure the solution coated the bottom of the well and incubated overnight at 4° C. On Day 2, the plate was washed 3 times with TBS +0.2% TWEEN, blocked for 1 hour with 3% MSD Blocker A (MSD R93AA-1, 30 μL/well), then washed again 3 times with TBS+0.2% TWEEN.
Treating and lysing cells: On Day 1, compounds of interest were dispensed into the cell cultures by acoustic dispensing technology. The cell cultures were then spun at 400 g for 4 minutes to disperse the compounds and incubated at 37° C. and 5% CO2 for 24 hours. After incubation, 40 μL of DPBS was added to the cell cultures to dilute the media. All liquid was gently discarded and immediately replaced with 30 μL of lysis buffer (MSD Tris Lysis buffer (MSD R60TX-2), Halt Protease inhibitor (ThermoFisher 78438), Phosphatase Inhibitor II (Sigma-Aldrich P5726), Phosphatase Inhibitor III (Sigma-Aldrich P0044), 0.02M PMSF (Sigma-Aldrich 7626), 0.1% SDS (VWR E719-100ML)). The plate was then sealed, shaken at 300 rpm at room temperature for 5 minutes, and freeze-thawed for optimum cell lysis.
Collecting data: After thawing, 25 μL of lysate was transferred to a coated MSD plate. The plate was then sealed and shaken at 300 rpm overnight in 4° C. On Day 3, the MSD plate was washed 3 times with TBS+0.2% TWEEN. Mouse anti-CCNE1 antibody (Abcam ab238081, 0.5 μg/mL in 1% MSD Blocker A, 10 μL/well) dispensed to the MSD plate, which was then sealed and shaken at room temperature for 3 hours. After the first antibody incubation, the plate was washed 3 times with TBS+0.2% TWEEN, then goat anti-mouse Sulfo-Tag antibody (MSD R32AC, 1 μg/mL in 1% MSD Blocker A, 10 μL/well) was dispensed to the MSD plate. The plate was sealed again and shaken at room temperature for 1 hour, then washed 3 times with TBS+0.2% TWEEN. After the final wash, 35 μL of 1× Read Buffer (MSD R92TC-1) was added to each well and the data was captured using the MSD plate reader. The reference compound, [2-(2,6-dioxopiperidin-3-yl)-4-methoxy-3-oxo-2,3-dihydro-1H-isoindol-5-yl]methyl N-[4-(3,4-difluorophenoxy)phenyl]carbamate, at […] was used to define […]. Assay results for each compound were reported as DC50, the concentration giving 50% response, and Dmax, the maximum response observed with the compound.

Cyclin E1, sequence (P24864 whole entry): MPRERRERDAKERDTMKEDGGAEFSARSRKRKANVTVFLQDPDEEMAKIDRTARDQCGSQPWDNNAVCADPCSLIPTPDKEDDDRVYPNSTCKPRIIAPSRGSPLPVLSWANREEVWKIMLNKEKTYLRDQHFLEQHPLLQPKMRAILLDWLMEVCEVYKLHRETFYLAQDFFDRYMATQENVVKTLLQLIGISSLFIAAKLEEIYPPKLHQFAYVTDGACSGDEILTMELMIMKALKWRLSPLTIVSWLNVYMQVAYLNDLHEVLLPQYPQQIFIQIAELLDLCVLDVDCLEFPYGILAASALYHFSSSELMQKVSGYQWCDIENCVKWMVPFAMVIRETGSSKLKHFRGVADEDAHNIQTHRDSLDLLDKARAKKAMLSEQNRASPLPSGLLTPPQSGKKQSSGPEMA
Cyclin E1, sequence (Q96SW2 whole entry): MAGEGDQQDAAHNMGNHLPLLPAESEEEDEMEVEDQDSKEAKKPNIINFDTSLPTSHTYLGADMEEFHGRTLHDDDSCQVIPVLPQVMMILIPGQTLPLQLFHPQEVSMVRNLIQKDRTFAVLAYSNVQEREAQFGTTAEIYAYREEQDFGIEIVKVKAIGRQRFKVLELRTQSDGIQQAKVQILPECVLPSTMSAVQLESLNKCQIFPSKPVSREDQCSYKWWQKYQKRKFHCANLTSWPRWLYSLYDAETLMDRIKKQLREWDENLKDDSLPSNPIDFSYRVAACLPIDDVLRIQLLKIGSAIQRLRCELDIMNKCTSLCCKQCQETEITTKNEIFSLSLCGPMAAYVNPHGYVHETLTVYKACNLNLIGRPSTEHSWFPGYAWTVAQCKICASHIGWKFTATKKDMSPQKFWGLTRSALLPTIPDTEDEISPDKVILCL
Cyclin E1, sequence (Q16531 whole entry partner): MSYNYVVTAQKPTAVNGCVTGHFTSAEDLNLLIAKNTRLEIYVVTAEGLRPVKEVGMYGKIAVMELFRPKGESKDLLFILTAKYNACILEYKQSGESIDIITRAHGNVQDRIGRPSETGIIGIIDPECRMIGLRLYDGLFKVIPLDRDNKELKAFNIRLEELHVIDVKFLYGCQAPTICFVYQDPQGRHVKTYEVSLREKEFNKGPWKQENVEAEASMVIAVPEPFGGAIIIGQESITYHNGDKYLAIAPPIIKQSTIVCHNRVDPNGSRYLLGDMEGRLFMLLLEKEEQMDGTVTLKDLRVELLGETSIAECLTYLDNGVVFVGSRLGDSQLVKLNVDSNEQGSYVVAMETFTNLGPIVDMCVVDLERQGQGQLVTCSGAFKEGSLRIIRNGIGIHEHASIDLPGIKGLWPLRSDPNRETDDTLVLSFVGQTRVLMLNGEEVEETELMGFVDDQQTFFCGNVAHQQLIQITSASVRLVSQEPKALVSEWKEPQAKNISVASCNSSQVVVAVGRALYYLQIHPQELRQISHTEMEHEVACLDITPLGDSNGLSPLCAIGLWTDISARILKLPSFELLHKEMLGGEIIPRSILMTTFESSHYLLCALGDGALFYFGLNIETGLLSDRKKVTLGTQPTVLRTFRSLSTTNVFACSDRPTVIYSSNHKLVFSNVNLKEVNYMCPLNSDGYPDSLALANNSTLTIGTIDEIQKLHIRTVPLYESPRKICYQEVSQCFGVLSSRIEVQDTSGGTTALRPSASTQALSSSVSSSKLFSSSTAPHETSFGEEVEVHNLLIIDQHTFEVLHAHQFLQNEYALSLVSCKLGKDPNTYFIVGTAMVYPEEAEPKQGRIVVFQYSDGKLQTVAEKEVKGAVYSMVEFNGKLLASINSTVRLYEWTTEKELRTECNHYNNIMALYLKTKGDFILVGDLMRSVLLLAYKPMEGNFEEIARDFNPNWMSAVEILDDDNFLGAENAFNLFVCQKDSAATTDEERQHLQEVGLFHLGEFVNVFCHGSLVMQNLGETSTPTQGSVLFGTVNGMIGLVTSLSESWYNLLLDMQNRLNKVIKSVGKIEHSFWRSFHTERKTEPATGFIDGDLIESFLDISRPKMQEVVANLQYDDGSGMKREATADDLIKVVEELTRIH
GSPT1, sequence (P15170 whole entry, the tested form may be a part): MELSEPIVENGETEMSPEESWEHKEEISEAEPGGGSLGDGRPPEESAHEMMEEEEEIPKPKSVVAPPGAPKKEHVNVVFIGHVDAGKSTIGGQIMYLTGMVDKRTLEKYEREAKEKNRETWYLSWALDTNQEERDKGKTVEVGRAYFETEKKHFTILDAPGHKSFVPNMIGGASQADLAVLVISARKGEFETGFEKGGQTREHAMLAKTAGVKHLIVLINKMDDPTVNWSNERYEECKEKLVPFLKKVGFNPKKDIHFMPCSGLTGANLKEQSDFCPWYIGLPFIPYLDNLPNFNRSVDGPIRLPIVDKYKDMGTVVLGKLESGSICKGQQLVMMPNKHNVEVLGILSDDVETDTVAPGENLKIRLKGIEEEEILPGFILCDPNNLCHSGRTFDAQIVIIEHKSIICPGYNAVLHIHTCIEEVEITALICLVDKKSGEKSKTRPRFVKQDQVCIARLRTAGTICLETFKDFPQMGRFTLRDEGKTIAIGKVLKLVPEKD
GSPT1, sequence (Q96SW2 whole entry, the tested form may be a part): as the sequence (Q96SW2 whole entry) above
GSPT1, sequence (Q16531 whole entry partner, the tested form may be a part): as the sequence (Q16531 whole entry partner) above

Take `COc1c(COC(=O)Nc2ccc(Oc3ccc(F)cc3F)cc2)ccc2c1C(=O)N(C1CCC(=O)NC1=O)C2` (centres unmarked) [Example 5, [2-(2,6-dioxopiperidin-3-yl)-4-methoxy-3-oxo-2,3-dihydro-1H-isoindol-5-yl]methyl N-[4-(2,4-difluorophenoxy)phenyl]carbamate]: in the assay with Phospho-Rb (Ser807/811), the IC50 was 3 nM and the Emax was determined as 131%. Besides, on GSPT1, the 50% degradation concentration (DC50) was > 14000 nM and the Dmax turned out to be 33%. Besides, at Cyclin E1, the half-maximal degradation concentration (DC50) came to 299 nM, the Dmax amounted to 118% and the “Ratio of GSPT1 DC50/Cyclin E1 DC50” value is on record as >47.
`COc1c(COC(=O)Nc2ccc(Cc3cccc(F)c3)cc2)ccc2c1C(=O)N(C1CCC(=O)NC1=O)C2` (centres unmarked) [Example 6, [2-(2,6-dioxopiperidin-3-yl)-4-methoxy-3-oxo-2,3-dihydro-1H-isoindol-5-yl]methyl N-{4-[(3-fluorophenyl)methyl]phenyl}carbamate]: in the assay with Phospho-Rb (Ser807/811), inhibition was half-maximal at 149 nM (IC50) and the Emax stood at 117%. On GSPT1, the DC50 was > 14000 nM and the Dmax was 6%. Further, at Cyclin E1, the 50% degradation concentration (DC50) was 62 nM, the Dmax stood at 94% and the “Ratio of GSPT1 DC50/Cyclin E1 DC50” value was >226.
With `COc1c(COC(=O)Nc2ccc(C3(c4ccccc4)CC3)cc2)ccc2c1C(=O)N(C1CCC(=O)NC1=O)C2` (centres unmarked) [Example 7, [2-(2,6-dioxopiperidin-3-yl)-4-methoxy-3-oxo-2,3-dihydro-1H-isoindol-5-yl]methyl N-[4-(1-phenylcyclopropyl)phenyl]carbamate], in the assay with Phospho-Rb (Ser807/811), the IC50 is 1780 nM and the Emax was found to be 10%. On GSPT1, the DC50 was > 14000 nM and the Dmax was found to be 21%. At Cyclin E1, the DC50 was found to be 203 nM, the Dmax was 90% and the “Ratio of GSPT1 DC50/Cyclin E1 DC50” value was >69.
Take `COc1c(COC(=O)Nc2ccc(N(C)c3cccc(F)c3)cc2)ccc2c1C(=O)N(C1CCC(=O)NC1=O)C2` (centres unmarked) [Example 8, [2-(2,6-dioxopiperidin-3-yl)-4-methoxy-3-oxo-2,3-dihydro-1H-isoindol-5-yl]methyl N-{4-[(3-fluorophenyl)(methyl)amino]phenyl}carbamate]: in the assay with Phospho-Rb (Ser807/811), the IC50 is 1230 nM and the Emax was found to be 99%. Besides, on GSPT1, the DC50 is > 14000 nM and the Dmax was 15%. On Cyclin E1, it took 353 nM to reach half-maximal degradation (DC50), the Dmax came to 104% and the “Ratio of GSPT1 DC50/Cyclin E1 DC50” value is listed as >40.
For `COc1c(COC(=O)Nc2ccc(Nc3cccc(F)c3)cc2)ccc2c1C(=O)N(C1CCC(=O)NC1=O)C2` (centres unmarked) [Example 9, [2-(2,6-dioxopiperidin-3-yl)-4-methoxy-3-oxo-2,3-dihydro-1H-isoindol-5-yl]methyl N-{4-[(3-fluorophenyl)amino]phenyl}carbamate], in the assay on Phospho-Rb (Ser807/811), half-maximal inhibition (IC50) required 3010 nM and the Emax amounted to 85%. At GSPT1, the 50% degradation concentration (DC50) is > 14000 nM and the Dmax is 38%. Further, on Cyclin E1, the half-maximal degradation concentration (DC50) amounted to 648 nM, the Dmax was 86% and the “Ratio of GSPT1 DC50/Cyclin E1 DC50” value is recorded as >22.
For `COc1c(COC(=O)Nc2ccc(Oc3cccc(Br)c3)cc2)ccc2c1C(=O)N(C1CCC(=O)NC1=O)C2` (centres unmarked) [Example 10, [2-(2,6-dioxopiperidin-3-yl)-4-methoxy-3-oxo-2,3-dihydro-1H-isoindol-5-yl]methyl N-[4-(3-bromophenoxy)phenyl]carbamate], in the assay on Phospho-Rb (Ser807/811), the IC50 turned out to be 352 nM and the Emax turned out to be 105%. At GSPT1, the DC50 was > 14000 nM and the Dmax was 54%. In addition, on Cyclin E1, half-maximal degradation (DC50) was put at 114 nM, the Dmax worked out at 106% and the “Ratio of GSPT1 DC50/Cyclin E1 DC50” value was >123.
For `COc1c(COC(=O)Nc2ccc(Oc3cccc(C)c3)cc2)ccc2c1C(=O)N(C1CCC(=O)NC1=O)C2` (centres unmarked) [Example 11, [2-(2,6-dioxopiperidin-3-yl)-4-methoxy-3-oxo-2,3-dihydro-1H-isoindol-5-yl]methyl N-[4-(3-methylphenoxy)phenyl]carbamate], in the assay with Phospho-Rb (Ser807/811), the midpoint of inhibition, the IC50, lay at 356 nM and the Emax turned out to be 98%. At GSPT1, the DC50 was > 14000 nM and the Dmax came out at 33%. On Cyclin E1, the DC50 was found to be 61 nM, the Dmax was found to be 112% and the “Ratio of GSPT1 DC50/Cyclin E1 DC50” value is given as >228.
On to `COc1c(COC(=O)Nc2ccc(Oc3cc(C)cc(C)c3)cc2)ccc2c1C(=O)N(C1CCC(=O)NC1=O)C2` (centres unmarked) [Example 12, [2-(2,6-dioxopiperidin-3-yl)-4-methoxy-3-oxo-2,3-dihydro-1H-isoindol-5-yl]methyl N-[4-(3,5-dimethylphenoxy)phenyl]carbamate], for which, in the assay with Phospho-Rb (Ser807/811), inhibition was half-maximal at 483 nM (IC50) and the Emax amounted to 111%. Besides, at GSPT1, the DC50 was > 14000 nM and the Dmax was found to be 11%. At Cyclin E1, the DC50 came to 82 nM, the Dmax amounted to 100% and the “Ratio of GSPT1 DC50/Cyclin E1 DC50” value was >171.
